Patent US20130252334A1, “METHOD OF USING TET-INDUCIBLE TRANSGENES” (UNIVERSITY OF ROCHESTER, priority 2010, published 2013)
Where two headings read alike, the source gives them in different places.

Test system: caspase-3 cleavage
Conditions: 2.5 μg/ml; for suppression of hypoxia-induced caspase-3 cleavage after pulse dosing: 16 hours washout, hypoxia 0.5% O2 24 hours; for caspase-3 cleavage, both dosing protocols: continuous or pulse, hypoxia
Protocol: Cells were exposed to 0.5% O2 for 18 hours unless otherwise specified.

Row | Structure (SMILES) | suppression of hypoxia-induced caspase-3 cleavage after pulse dosing (12 hours pulse) | suppressive effect on caspase-3 cleavage vs washout period length (12 hours pulse, washout 0, 12, 24 hours, hypoxia 0.5% O2 18 hours) | caspase-3 cleavage, both dosing protocols | suppression of hypoxia-induced caspase-3 cleavage after pulse dosing (12 hours pulse, listed as doxycycline)
1 | C[C@H]1c2ccc(C(C)(C)C)c(O)c2C(O)=C2C(=O)[C@]3(O)C(O)=C(C(N)=O)C(=O)[C@@H](N(C)C)[C@@H]3[C@@H](O)[C@@H]21 [9-TB, 9-t-butyl doxycycline] | less impressive | augmented by shorter washout periods with a sharp decline occurring between the 12 and 24-hour chase periods | both drugs interfered with caspase-3 cleavage | –
2 | CC1c2cccc(O)c2C(=O)C2=C(O)C3(O)C(=O)C(C(N)=O)=C(O)C(N(C)C)C3C(O)C21 (stereo not drawn) [Dox, 4-[Dimethylamino]-1,4,4a,5,5a,6,11,12a-octahydro-3,5,10,12,12apentahydroxy-6-methyl-1,11-dioxo-2-naphthacenecarboxamide] | ameliorated dox-mediated suppression | – | both drugs interfered with caspase-3 cleavage | did ameliorate its suppressive effects on caspase cleavage
